Experimental data from patent publication US20240309319A1, “COMPOSITIONS AND METHODS FOR THE GENERATION OF NEURONS AND USES THEREOF” (Washington University, priority 2021, published 2024).

Tested on: cortical markers TBR1, MEF2C, BRN2, NEUROD2
Experiment: qPCR of cortical markers in miNs versus starting fibroblasts
Type: cell-based, human
Settings: combination of MYT1L and ISX9 with miR-9/9*-124, day 30 miNs, ISX9 10 uM on PID 3, 6, 10, 14
Description: Direct Neuronal Reprogramming: Human fibroblasts were directly reprogrammed to miNs as previously described with modifications. Briefly, fibroblasts were transduced with supernatant lentivirus mix comprised of dox-inducible miR-9/9*-124, rtTA, and the transcription factor MYT1L. From PID1 to PID14 cells were treated with DAPT (2 uM) to increase neurite outgrowth and neuronal differentiation, and on PID 3, 6, 10, and 14, cells were also treated with the NEUROD1-activator ISX9 (10 uM) to push cortical fate. Fibroblasts and reprogramming cells were cultured in DMEM+10% FBS through replating at PID5. On PID6, cells were switched to Neurobasal-A with B27+(1000×) and Glutamax (500×), containing 1 μg/mL doxycycline, 200 μM dibutyl cyclic AMP, 1 mM valproic acid, 2 uM DAPT, 200 nM Ascorbic Acid, 10 ng/mL BDNF, 10 ng/mL NT-3, 1 μM retinoic acid, 10 uM ISX9, 100×RVC, and 3 μg/mL puromycin. […]
Quantitative PCR (qPCR): Total RNA was extracted from miNs using TRIzol (Invitrogen, USA) following manufacturer protocol. Reverse-transcription was performed with 150-200 ng of RNA with SuperScript IV First Strand Synthesis SuperMix (Invitrogen, USA). qPCR assay was run with SYBR Green PCR Master Mix and plate was run and analyzed on StepOnePlus Real-Time PCR System (AB Applied Biosystems, Germany). […] Expression values were calculated in Excel using the delta Ct method and Z-score calculation.

`O=C(NC1CC1)c1cc(-c2cccs2)on1` [ISX9, Isoxazole 9] was tested, and the “Cortical fate (cortical marker expression by qPCR)” value was “sufficient to drive the cortical fate”.
